Reference: ChEMBL document CHEMBL1800013, “Small molecule inhibitors of SHP2 tyrosine phosphatase discovered by virtual screening” (Bioorg Med Chem Lett, 2011)
Calls of active or inactive are those of the source. The calls are words filed in the database; no cut-off is given here.

Experiments:
[1] = molecular target: T1, Receptor-type tyrosine-protein phosphatase C (Homo sapiens, UniProt P08575); experiment: Inhibition of CD45
T1 sequence (P08575 whole entry): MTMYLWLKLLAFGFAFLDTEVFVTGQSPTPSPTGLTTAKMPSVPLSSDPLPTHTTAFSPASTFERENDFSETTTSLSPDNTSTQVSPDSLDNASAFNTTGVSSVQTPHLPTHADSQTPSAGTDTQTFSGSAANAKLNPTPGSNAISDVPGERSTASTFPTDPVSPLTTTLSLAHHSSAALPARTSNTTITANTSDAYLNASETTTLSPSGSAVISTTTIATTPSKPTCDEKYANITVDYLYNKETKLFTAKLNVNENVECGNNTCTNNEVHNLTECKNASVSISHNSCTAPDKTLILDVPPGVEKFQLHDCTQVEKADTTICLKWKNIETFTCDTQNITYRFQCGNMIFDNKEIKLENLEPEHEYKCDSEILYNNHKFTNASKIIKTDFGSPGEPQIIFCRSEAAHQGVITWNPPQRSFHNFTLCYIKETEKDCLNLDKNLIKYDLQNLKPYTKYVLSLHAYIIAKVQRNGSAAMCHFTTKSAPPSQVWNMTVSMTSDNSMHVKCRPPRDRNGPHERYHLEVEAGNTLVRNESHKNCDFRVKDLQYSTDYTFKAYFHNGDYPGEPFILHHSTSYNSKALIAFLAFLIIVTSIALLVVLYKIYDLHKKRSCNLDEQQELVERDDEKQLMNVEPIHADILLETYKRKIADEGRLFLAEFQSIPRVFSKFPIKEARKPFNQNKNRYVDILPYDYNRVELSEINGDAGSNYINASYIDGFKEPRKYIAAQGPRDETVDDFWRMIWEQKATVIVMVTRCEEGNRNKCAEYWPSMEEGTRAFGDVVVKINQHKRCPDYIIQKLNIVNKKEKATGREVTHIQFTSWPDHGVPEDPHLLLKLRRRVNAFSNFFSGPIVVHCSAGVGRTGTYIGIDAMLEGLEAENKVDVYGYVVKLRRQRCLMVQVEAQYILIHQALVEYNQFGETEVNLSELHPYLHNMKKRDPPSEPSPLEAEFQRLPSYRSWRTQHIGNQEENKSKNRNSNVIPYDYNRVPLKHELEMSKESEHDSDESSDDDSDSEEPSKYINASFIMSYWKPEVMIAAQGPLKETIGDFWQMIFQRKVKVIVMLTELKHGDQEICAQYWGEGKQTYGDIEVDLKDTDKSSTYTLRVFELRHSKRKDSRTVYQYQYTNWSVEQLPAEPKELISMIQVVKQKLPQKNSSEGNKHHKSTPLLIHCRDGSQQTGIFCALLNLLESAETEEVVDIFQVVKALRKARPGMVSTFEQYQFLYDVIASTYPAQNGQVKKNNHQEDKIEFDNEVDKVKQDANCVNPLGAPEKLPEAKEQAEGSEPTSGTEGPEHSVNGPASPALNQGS

[2] = molecular target: T2, Dual specificity protein phosphatase 22 (Homo sapiens, UniProt Q9NRW4); experiment: Inhibition of VHX
T2 sequence (Q9NRW4 whole entry): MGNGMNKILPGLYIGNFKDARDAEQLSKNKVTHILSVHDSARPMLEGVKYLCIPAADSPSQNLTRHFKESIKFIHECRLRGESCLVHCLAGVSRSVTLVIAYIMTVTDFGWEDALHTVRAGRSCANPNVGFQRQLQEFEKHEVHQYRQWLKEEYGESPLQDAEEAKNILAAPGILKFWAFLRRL

[3] = molecular target: Receptor-type tyrosine-protein phosphatase alpha (Homo sapiens) (UniProt P18433); experiment: Inhibition of PTPalpha at 100 uM
[4] = molecular target: Receptor-type tyrosine-protein phosphatase F (Homo sapiens, UniProt P10586); experiment: Inhibition of LAR
[5] = molecular target: T3, Tyrosine-protein phosphatase non-receptor type 11 (Homo sapiens) (UniProt Q06124); experiment: Inhibition of SHP2 catalytic domain assessed as inhibition of pNPP to p-nitrophenol conversion at 50 uM after 5 mins by spectrophotometry
T3 sequence (whole entry): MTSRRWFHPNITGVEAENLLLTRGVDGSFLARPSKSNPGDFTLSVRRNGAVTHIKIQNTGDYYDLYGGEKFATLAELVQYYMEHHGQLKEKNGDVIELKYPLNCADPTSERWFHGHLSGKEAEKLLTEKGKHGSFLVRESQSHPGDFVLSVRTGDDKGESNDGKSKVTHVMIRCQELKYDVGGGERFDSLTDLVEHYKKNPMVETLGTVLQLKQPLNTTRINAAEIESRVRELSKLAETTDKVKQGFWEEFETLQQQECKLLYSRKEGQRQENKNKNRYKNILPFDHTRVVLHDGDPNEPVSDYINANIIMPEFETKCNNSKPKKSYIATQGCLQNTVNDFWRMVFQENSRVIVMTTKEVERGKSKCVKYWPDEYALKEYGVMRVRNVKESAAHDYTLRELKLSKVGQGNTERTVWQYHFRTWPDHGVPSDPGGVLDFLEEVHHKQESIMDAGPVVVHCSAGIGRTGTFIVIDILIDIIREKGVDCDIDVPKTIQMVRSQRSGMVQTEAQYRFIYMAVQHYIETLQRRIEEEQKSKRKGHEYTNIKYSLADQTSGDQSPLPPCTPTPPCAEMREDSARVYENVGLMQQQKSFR

[6] = molecular target: T4, Low molecular weight phosphotyrosine protein phosphatase (Homo sapiens, UniProt P24666); experiment: Inhibition of LMW-PTP
T4 sequence (P24666 whole entry): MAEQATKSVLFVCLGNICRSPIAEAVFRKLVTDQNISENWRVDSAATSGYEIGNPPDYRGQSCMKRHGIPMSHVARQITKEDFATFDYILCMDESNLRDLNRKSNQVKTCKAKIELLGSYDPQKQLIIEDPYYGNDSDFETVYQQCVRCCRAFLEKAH

[7] = Inhibition of Cdc14 at 100 uM
[8] = molecular target: Tyrosine-protein phosphatase non-receptor type 6 (Homo sapiens, UniProt P29350); experiment: Inhibition of SHP1
[9] = molecular target: T5, Tyrosine-protein phosphatase non-receptor type 2 (Homo sapiens, UniProt P17706); experiment: Inhibition of TC-PTP
T5 sequence (P17706 whole entry): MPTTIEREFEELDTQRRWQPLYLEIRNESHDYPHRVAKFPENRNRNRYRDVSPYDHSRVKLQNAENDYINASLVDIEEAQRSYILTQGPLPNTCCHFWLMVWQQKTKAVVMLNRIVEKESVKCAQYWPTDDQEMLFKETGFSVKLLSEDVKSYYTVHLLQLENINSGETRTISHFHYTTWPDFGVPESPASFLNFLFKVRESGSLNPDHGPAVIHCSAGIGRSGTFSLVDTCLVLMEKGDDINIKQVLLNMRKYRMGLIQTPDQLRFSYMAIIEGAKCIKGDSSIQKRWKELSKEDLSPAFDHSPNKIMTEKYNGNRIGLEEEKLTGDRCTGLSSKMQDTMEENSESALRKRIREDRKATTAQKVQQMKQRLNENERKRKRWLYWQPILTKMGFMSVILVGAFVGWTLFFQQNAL

Sequence of Tyrosine-protein phosphatase non-receptor type 6 (P29350 whole entry): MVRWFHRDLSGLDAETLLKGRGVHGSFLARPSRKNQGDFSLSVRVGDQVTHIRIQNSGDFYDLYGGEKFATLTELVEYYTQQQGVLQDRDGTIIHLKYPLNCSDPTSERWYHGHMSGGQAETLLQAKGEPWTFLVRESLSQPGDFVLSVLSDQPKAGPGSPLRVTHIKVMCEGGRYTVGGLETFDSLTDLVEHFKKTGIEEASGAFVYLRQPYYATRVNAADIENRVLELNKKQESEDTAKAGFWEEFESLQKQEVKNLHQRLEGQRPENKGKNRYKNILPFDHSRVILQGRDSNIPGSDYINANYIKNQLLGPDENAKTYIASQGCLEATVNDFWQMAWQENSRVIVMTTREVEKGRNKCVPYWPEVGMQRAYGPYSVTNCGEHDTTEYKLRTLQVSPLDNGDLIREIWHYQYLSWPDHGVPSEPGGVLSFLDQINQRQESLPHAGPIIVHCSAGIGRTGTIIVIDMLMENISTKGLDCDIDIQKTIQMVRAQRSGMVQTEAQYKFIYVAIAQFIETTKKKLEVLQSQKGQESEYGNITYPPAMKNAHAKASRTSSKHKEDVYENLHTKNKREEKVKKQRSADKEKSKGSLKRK
Sequence of Receptor-type tyrosine-protein phosphatase alpha (Homo sapiens) (P18433 20-802 limits assumed): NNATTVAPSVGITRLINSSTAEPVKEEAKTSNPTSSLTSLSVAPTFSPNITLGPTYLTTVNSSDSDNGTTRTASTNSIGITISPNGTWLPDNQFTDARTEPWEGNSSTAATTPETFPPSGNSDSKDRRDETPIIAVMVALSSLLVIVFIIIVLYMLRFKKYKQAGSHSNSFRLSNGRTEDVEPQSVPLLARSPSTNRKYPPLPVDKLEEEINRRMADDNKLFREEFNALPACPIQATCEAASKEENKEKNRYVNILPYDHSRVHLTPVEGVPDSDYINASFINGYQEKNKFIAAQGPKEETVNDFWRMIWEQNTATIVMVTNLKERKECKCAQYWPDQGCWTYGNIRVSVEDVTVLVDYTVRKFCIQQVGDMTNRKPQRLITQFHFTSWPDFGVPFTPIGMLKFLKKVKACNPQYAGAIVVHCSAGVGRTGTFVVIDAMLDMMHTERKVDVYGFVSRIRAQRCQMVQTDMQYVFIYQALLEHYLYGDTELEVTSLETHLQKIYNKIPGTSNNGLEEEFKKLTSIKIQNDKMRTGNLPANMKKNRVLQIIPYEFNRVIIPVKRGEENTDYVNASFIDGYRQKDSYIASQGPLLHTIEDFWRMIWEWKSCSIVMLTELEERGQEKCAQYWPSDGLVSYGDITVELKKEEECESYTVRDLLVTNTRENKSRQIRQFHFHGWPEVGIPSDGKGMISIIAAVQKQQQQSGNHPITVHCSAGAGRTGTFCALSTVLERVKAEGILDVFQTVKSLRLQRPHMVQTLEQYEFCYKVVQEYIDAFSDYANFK
Sequence of Receptor-type tyrosine-protein phosphatase F (P10586 whole entry, the tested form may be a part): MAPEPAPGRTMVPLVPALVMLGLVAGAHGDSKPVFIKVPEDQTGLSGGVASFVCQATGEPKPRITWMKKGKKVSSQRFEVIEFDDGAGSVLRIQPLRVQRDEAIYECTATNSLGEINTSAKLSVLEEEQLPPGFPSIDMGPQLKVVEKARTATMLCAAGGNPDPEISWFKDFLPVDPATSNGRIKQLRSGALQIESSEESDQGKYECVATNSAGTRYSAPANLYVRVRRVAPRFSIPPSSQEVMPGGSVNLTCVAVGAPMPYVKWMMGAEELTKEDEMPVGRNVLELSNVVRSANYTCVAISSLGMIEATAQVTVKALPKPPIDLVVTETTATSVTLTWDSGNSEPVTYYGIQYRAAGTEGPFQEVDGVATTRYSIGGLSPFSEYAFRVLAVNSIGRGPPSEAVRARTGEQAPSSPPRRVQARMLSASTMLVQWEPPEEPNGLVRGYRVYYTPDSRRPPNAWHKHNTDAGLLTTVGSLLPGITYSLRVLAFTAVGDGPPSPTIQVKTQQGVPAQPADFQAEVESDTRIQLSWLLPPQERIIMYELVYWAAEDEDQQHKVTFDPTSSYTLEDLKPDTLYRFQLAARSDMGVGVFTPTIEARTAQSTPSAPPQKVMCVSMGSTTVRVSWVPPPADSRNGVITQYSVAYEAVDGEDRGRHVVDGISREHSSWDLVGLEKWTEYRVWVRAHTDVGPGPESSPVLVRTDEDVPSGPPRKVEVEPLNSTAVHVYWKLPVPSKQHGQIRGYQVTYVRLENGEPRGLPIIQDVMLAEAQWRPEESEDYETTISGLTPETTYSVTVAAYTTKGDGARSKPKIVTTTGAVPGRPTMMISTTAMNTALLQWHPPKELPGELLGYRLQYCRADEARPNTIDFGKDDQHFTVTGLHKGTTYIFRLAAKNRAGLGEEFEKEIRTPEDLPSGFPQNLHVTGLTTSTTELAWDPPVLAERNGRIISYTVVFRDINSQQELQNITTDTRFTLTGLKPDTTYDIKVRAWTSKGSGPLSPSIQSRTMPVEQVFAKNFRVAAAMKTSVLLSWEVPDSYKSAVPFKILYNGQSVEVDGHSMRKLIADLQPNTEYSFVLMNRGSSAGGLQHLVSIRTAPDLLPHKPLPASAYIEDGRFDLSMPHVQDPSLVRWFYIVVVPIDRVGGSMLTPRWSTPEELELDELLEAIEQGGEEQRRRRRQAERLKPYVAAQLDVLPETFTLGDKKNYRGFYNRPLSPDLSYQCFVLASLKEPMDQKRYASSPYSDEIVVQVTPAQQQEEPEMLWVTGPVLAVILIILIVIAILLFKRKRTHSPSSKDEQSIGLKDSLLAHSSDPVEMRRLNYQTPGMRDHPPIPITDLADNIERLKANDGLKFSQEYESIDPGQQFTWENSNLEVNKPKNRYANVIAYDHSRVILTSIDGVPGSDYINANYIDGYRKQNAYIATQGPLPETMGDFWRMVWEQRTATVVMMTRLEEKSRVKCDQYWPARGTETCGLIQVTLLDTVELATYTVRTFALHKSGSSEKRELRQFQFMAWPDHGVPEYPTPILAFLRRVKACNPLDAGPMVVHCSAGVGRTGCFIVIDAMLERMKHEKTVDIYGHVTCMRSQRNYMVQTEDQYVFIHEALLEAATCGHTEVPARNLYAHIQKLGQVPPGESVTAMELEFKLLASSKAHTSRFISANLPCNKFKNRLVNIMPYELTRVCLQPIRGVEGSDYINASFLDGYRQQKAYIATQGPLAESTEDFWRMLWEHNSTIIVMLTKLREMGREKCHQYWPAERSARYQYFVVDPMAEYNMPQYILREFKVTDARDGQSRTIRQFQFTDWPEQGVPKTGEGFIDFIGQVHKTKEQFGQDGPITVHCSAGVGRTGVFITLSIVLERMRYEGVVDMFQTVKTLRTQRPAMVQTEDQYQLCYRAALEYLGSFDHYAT

Cc1cc(S(=O)(=O)O)c(S(=O)(=O)O)cc1N1N=C(C(=O)O)CC1=O
IC50 [1]: > 100 µM | IC50 [2]: > 100 µM | inhibition [3]: inactive | IC50 [4]: > 100 µM | inhibition [5]: 91% | IC50 [6]: > 100 µM | inhibition [7]: inactive | IC50 [8]: 14 µM | IC50 [9]: > 100 µM
